The text below walks through data of patent publication US20130244950A1, “COMBINATION THERAPY FOR CHEMORESISTANT CANCERS” (CELGENE CORPORATION, priority 2011, published 2013).

Like-named read-outs stand apart in the source and are kept apart here.

For data set [1] the following is noted: cited from earlier work.
Data set [2] concerns ccRCC cell lines A498 and KIJ265T and TNBC cell lines MDA231 and BT20. The experiment in a line: Drug treatments and proliferation assay (cell counting, Coulter Particle Counter). The class given is cell-based, Human. How it is done: Human renal cell carcinoma cell lines A498 (ATCC, Manassas, Va.) and KIJ265T (derived from primary tumor site stage 4 human renal cell carcinoma patient tissue established in the Copland laboratory), as well as triple negative breast cancer cell lines BT-20 (ATCC) and MDA-231 (ATCC) were maintained in phenol red free DMEM medium (Cellgro, Herndon, Va.) supplemented with 10% FBS (Hyclone, Logan, Utah) and penicillin-streptomycin (Invitrogen, Carlsbad, Calif.) at 37° C. in humidified conditions with 5% CO2.
DMSO was used for vehicle control. […] Cells were trypsinized 24 hours later and counted.

The test system of a further data set is KIJ265T ccRCC cell line. The experiment in a line: Cell death analysis via flow cytometry (propidium iodide). Format: cell-based, Human. The conditions noted are these: 5 nM romidepsin and/or 1 μM decitabine, 72 hour treatment. How it is done:
Cells were treated with the optimal combinatorial therapy and appropriate control groups were prepared. After 72 hour treatment both adhered and floating cells were collected, centrifuged at 4° C., and washed using DPBS. Cells were centrifuged and re-suspended in 1× cold binding buffer (BD Pharmingen, San Jose, Calif.) at a concentration of 1×10^6 cells per ml. Cells were stained for 10 minutes with propidium iodide (BD Pharmingen), and FACS analysis was performed using Accuri C6 flow cytometer (Accuri, Ann Arbor, Mich.). Unstained cells were used as controls for setting the cell population parameters.
Background: Flow cytometry measures light scatter and fluorescence of single cells or particles in a stream.

In the next data set the test system is BT20 cell line. The description is as above. The class given is cell-based, Human. To be noted: 5 nM romidepsin and/or 1 μM decitabine, 72 hour treatment.
In data set [3] the test system is PARP cleavage in KIJ265T and MDA-231 parent cell lines. The experiment in a line: PARP cleavage after recombinant human sFRP1. Format: cell-based. The conditions noted are these: single dose of 1.4 nM sFRP1.
The subject of a further data set is MDA231 and KIJ265T cells. The experiment in a line: Proliferation of cells treated with recombinant human sFRP1. Format: cell-based. The conditions noted are these: escalating doses of recombinant sFRP1 in the media, 72 hours. The method, then: For the treatment of cells with recombinant human sFRP1, MDA231 and KIJ265T cells were seeded in a 96-well culture plate at 5000 cells per well in 100 μl DMEM supplemented with PSA and 10% FBS. After overnight incubation, cells were washed in PBS and 100 μl of serum free DMEM containing the final concentration of sFRP1 was added. The cells were incubated for 6 hours Serum was re-introduced to these wells to a final concentration of 2% FBS. Plates were incubated for 72 hours before cells were trypsinized and counted.

Turning to `Nc1ncn([C@@H]2O[C@H](CO)[C@@H](O)[C@H]2O)c(=O)n1` [azacitidine, 4-amino-1-β-D-ribofuranozyl-s-triazin-2(1H)-one], the solubility entry in data set [1] (acetone, ethanol and methyl ketone) was “insoluble”; in data set [1] (dimethylsulfoxide (DMSO)), “soluble”; in data set [1] (ethanol/water (50/50), propylene glycol and polyethylene glycol), “slightly soluble”; in data set [1] (water, water-saturated octanol, 5% dextrose in water, N-methyl-2-pyrrolidone, normal saline and 5% Tween 80 in water) it was “sparingly soluble”.
On to `Nc1ncn([C@H]2C[C@H](O)[C@@H](CO)O2)c(=O)n1` [decitabine, 4-amino-1-(2-deoxy-β-D-erythro-pentofuranosyl)-1,3,5-triazin-2(1H)one], for which, in data set [2] (decitabine alone, all tested doses (0.01 μM to 10 μM), 72 hours post drug exposure), the “effect on cell proliferation” value was “minimal effect on cell proliferation”. Besides, the solubility result in data set [1] (dimethylsulfoxide (DMSO)) was “soluble”; in data set [1] (ethanol/water (50/50), methanol/water (50/50) and methanol) it was “slightly soluble”; in data set [1] (water), “sparingly soluble”. For the same molecule, the “cell death induced above DMSO treated controls” value in the data set with KIJ265T ccRCC cell line came to 6.3%.
As for `C/C=C1\NC(=O)[C@H]2CSSCC/C=C/[C@H](CC(=O)N[C@H](C(C)C)C(=O)N2)OC(=O)[C@H](C(C)C)NC1=O` [romidepsin, (1S,4S,7Z,10S,16E,21R)-7-ethylidene-4,21-bis(1-methylethyl)-2-oxa-12,13-dithia-5,8,20,23-tetrazabicyclo[8.7.6]tricos-16-ene-3,6,9,19,22-pentone], the “cell death in single treatment samples” value in data set [2] (5 nM romidepsin, 3 day exposure) is recorded as approximately 50%. Besides, the “inhibition of cell proliferation” value in data set [2] (romidepsin alone, 2.5-100 nM dose range, 72 hours post drug exposure) was “significant inhibition of cell proliferation”. In addition, the “cell death induced compared to DMSO controls” value in the data set on BT20 cell line turned out to be 5.8%.

B1: recombinant human sFRP1: recombinant human secreted frizzled related protein 1, negative regulator of Wnt signaling (protein, UniProt Q8N474 32-314, looked up)
Secreted frizzled-related …: SEYDYVSFQSDIGPYQSGRFYTKPPQCVDIPADLRLCHNVGYKKMVLPNLLEHETMAEVKQQASSWVPLLNKNCHAGTQVFLCSLFAPVCLDRPIYPCRWLCEAVRDSCEPVMQFFGFYWPEMLKCDKFPEGDVCIAMTPPNATEASKPQGTTVCPPCDNELKSEAIIEHLCASEFALRMKIKEVKKENGDKKIVPKKKKPLKLGPIKKKDLKKLVLYLKNGADCPCHQLDNLSHHFLIMGRKVKSQYLLTAIHKWDKKNKEFKNFMKKMKNHECPTFQSVFK
On to B1, for which, in data set [3], the “induction of apoptosis (PARP cleavage)” value is reported as “induction of apoptosis as seen by PARP cleavage”. For the same molecule, the cell proliferation result in the data set on MDA231 and KIJ265T cells was “dose-dependent decrease”.
